Experimental data from patent US4320117A, “Polypeptide” (Imperial Chemical Industries Limited, priority 1976, dated 1982).
Square brackets hold non-standard residues; d marks the D form. Peptide text beside a SMILES is read from it.

Columns and labels:
[1] = system: cat; settings: injected directly into the 3rd ventricle of the cat; cited from earlier work
[2] = system: mouse hot-plate test (thermal stimulus, 56° C.); assay: mouse hot-plate test; format: in vivo, mice; settings: for mean increase in reaction time: female mice, hot plate at 56° C.
Experimental: As noted above, the compound of the formula I has analgesic activity in warm-blooded animals. […] This test is carried out as follows. Groups of three female mice each weighing 22 to 25g. are used to test each compound. Each mouse is placed on a heated thermostatically-controlled copper surface at 56° C., and the time taken to react to the thermal stimulus (for example by licking its hind paws) is recorded. Normal reaction times are in the range of 3 to 5 seconds.
Each of the three mice is then dosed intravenously with 100 mg./kg. of a solution of the test compound. At 5, 10 and 30 minutes after dosing, each mouse is again placed on the hot plate and its reaction time determined. […] In this circumstance the compound is regarded as having maximum activity at this dose.
A compound producing a mean increase in reaction time of at least three seconds is regarded as active. An active compound is then retested at lower doses.

| Compound | analgesic properties [1] | mean increase in reaction time ([2]; intravenous dose of 100 mg./kg.) [s] | mean increase in reaction time ([2]; intravenous, 25 mg./kg.) [s] | duration of analgesic effect ([2]; mice, intravenous, 100 mg./kg.) | signs of toxicity ([2]; mice, intravenous, 100 mg./kg.) |
| --- | --- | --- | --- | --- | --- |
| β-endorphin: residues 61-91 of the naturally-occurring lipolytic polypeptide hormone lipotropin (C-fragment of lipotropin) (YGGFMTSEKSQTPLVTLFKNAIIKNAYKKGE; Beta-endorphin; UniProt P01189 237-267, looked up) | possesses analgesic properties |  |  |  |  |
| CC[C@H](C)[C@H](NC(=O)[C@H](C)NC(=O)[C@H](CC(N)=O)NC(=O)[C@H](CCCCN)NC(=O)[C@H](Cc1ccccc1)NC(=O)[C@H](CC(C)C)NC(=O)[C@@H](NC(=O)[C@@H](NC(=O)[C@H](CC(C)C)NC(=O)[C@@H]1CCCN1C(=O)[C@@H](NC(=O)[C@H](CCC(N)=O)NC(=O)[C@H](CO)NC(=O)[C@H](CCCCN)NC(=O)[C@H](CCC(=O)O)NC(=O)[C@H](CO)NC(=O)[C@@H](NC(=O)[C@H](CC(C)C)NC(=O)[C@H](Cc1ccccc1)NC(=O)CNC(=O)[C@@H](C)NC(=O)[C@@H](N)Cc1ccc(O)cc1)[C@@H](C)O)[C@@H](C)O)C(C)C)[C@@H](C)O)C(=O)N[C@H](C(=O)N[C@@H](CCCCN)C(=O)N[C@@H](CC(N)=O)C(=O)N[C@@H](C)C(=O)N[C@@H](Cc1c[nH]cn1)C(=O)N[C@@H](CCCCN)C(=O)N[C@@H](CCCCN)C(=O)NCC(=O)N[C@@H](CCC(N)=O)C(=O)O)C(C)C [Example] (H-Y[dA]GFLTSEKSQTPLVTLFKNAIVKNAHKKGQ-OH) |  | 15 | 6 | at least 3 hours | no obvious signs of toxicity |
